According to patent US20070203118A1, “SUBSTITUTED TETRAHYDROISOQUINOLINES USED IN THE FORM OF MMP INHIBITORS, METHOD FOR THE PRODUCTION AND USE THEREOF IN THE FORM OF DRUGS” (SANOFI-AVENTIS DEUTSCHLAND GMBH, priority 2004, published 2007):

Biological target: T1, catalytic domain of human gelatinase-A (MMP-9) (Homo sapiens, UniProt P14780)
T1 construct: Determination of the Enzymatic Activity of the Catalytic Domain of Human Gelatinase-A (MMP-9); purchased Roche, Mannheim
Experiment: Enzymatic activity of the catalytic domain of human gelatinase (MMP-9), fluorogenic substrate
Assay type: biochemical
Conditions: stated in the text
Description: Determination of the Enzymatic Activity of the Catalytic Domain of Human Gelatinase-A (MMP-9)
Activation of the proenzyme:
2 parts by volume of proenzyme were incubated with 1 part by volume of APMA solution at 37° C. for 4 hours. The APMA solution was prepared from a 10 mmol/l p-aminophenylmercuric acetate solution in 0.1 mmol/l NaOH by dilution with 3 parts by volume of Tris/HCl buffer pH 7.5 (see below). The pH was adjusted to between 7.0 and 7.5 by adding 1 mmol/l HCl. After activation of the enzyme it was diluted with the Tris/HCl buffer to a concentration of 4.2 mU/ml.
The enzymic activity was measured by incubating 10 μl of enzyme solution with 10 μl of a 3% strength (v/v) buffered dimethyl sulfoxide solution (reaction 1) for 15 minutes. The enzyme inhibitor activity was measured by incubating 10 μl of enzyme solution with 10 μl of a 3% strength (v/v) buffered dimethyl sulfoxide solution which contained the enzyme inhibitor (reaction 2).
The enzymic reaction both in the case of reaction 1 and in the case of reaction 2 was followed after addition of 10 μl of a 3% strength (v/v) aqueous dimethyl sulfoxide solution which contained 0.15 mmol/l of the substrate by fluorescence spectroscopy (328 nm (extinction)/393 nm (emission)).
The enzymic activity has been presented as increase in extinction/minute.
The effect of the inhibitor was calculated as percentage inhibition by the following formula: % inhibition=100−[(increase in extinction/minute in reaction 2)/(increase in extinction/minute in reaction 1)×100].
The IC50, which is the concentration of inhibitor which is necessary for 50% inhibition of the enzymic activity, was determined graphically by plotting the percentage inhibitions at various inhibitor concentrations.
The buffer solution contained 0.05% Brij (Sigma, Deisenhofen, Germany) and 0.1 mol/l Tris/HCl, 0.1 mol/l NaCl, 0.01 mol/l CaCl2 (pH=7.5). The enzyme solution contained 4.2 mU/ml of the enzyme domain. The substrate solution contained 0.15 mmol/l of the fluorogenic substrate (7-methoxycoumarin-4-yl)acetyl-Pro-Leu-Gly-Leu-3-(2′,4′-dinitrophenyl)-L-2,3-diaminopropionyl-Ala-Arg-NH2 (Bachem, Heidelberg, Germany).

T1 sequence (P14780 107-707 limits assumed): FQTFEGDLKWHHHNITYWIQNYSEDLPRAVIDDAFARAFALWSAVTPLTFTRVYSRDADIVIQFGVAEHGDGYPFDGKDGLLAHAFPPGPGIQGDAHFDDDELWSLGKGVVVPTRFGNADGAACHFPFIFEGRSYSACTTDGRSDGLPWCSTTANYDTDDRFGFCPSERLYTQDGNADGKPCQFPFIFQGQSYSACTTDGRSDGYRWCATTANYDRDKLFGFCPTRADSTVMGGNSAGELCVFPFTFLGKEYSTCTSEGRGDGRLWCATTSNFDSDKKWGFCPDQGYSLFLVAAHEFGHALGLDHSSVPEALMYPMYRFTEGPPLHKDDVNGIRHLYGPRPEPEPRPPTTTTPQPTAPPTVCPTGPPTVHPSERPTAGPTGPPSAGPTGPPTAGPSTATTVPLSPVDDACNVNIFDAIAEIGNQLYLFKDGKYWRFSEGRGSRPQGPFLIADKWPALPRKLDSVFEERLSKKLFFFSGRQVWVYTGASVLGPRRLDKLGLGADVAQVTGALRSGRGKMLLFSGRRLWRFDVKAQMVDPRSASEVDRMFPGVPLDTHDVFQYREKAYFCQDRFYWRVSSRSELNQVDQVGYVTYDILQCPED

Structure (SMILES) | ratio of MMP1 to MMP9 inhibition
COc1ccc(Oc2ccc(S(=O)(=O)N3CCc4ccccc4C3C(=O)NO)cc2)cc1 (centres unmarked) | 60
COc1ccc(S(=O)(=O)N2CCc3ccccc3C2C(=O)NO)cc1 (centres unmarked) [reference compound] | 3.7
